The subject of this data set is CCRIS mutagenicity, Ames/micronucleus/aberration tests. In words: CCRIS mutagenicity studies.
[1] abbreviates: Test System: AMES SALMONELLA TYPHIMURIUM, Strain/Indicator: TA97, Metabolic Activation: NONE, Method: PREINCUBATION
The mark [2] stands for this setting: Test System: AMES SALMONELLA TYPHIMURIUM, Strain/Indicator: TA98, Metabolic Activation: HAMSTER, LIVER, S-9, AROCLOR 1254 (10 OR 30%), Method: PREINCUBATION
[3] abbreviates: Test System: AMES SALMONELLA TYPHIMURIUM, Strain/Indicator: TA98, Metabolic Activation: NONE, Method: PREINCUBATION
[4] abbreviates: Test System: AMES SALMONELLA TYPHIMURIUM, Strain/Indicator: TA98, Metabolic Activation: RAT, LIVER, S-9, AROCLOR 1254 (10 OR 30%), Method: PREINCUBATION
The mark [5] stands for this setting: Test System: AMES SALMONELLA TYPHIMURIUM, Strain/Indicator: TA100, Metabolic Activation: NONE, Method: PREINCUBATION
Setting [6] is: Test System: AMES SALMONELLA TYPHIMURIUM, Strain/Indicator: TA1535, Metabolic Activation: NONE, Method: PREINCUBATION

Structures are written as SMILES. Calls of active or inactive are those of the source. The rule behind the calls is not given here.

For the molecule `O=C/C=C/c1ccco1`, the mutagenic call by setting is: (Test System: AMES SALMONELLA TYPHIMURIUM, Strain/Indicator: TA97, Metabolic Activation: HAMSTER, LIVER, S-9, AROCLOR 1254 (10%), Method: PREINCUBATION) “inactive; negative”; (Test System: AMES SALMONELLA TYPHIMURIUM, Strain/Indicator: TA97, Metabolic Activation: HAMSTER, LIVER, S-9, AROCLOR 1254 (30%), Method: PREINCUBATION) “inactive; negative”; under setting [1], “inactive; negative”; (Test System: AMES SALMONELLA TYPHIMURIUM, Strain/Indicator: TA97, Metabolic Activation: RAT, LIVER, S-9, AROCLOR 1254 (10%), Method: PREINCUBATION) “inactive; negative”; (Test System: AMES SALMONELLA TYPHIMURIUM, Strain/Indicator: TA97, Metabolic Activation: RAT, LIVER, S-9, AROCLOR 1254 (30%), Method: PREINCUBATION) “inactive; negative”; under setting [2], “inactive; negative”. The mutagenic call reads like this: under setting [3], “inactive; negative”; under setting [4], “inactive; negative”; (Test System: AMES SALMONELLA TYPHIMURIUM, Strain/Indicator: TA100(NR), Metabolic Activation: NONE, Method: PREINCUBATION) “inactive; negative”; (Test System: AMES SALMONELLA TYPHIMURIUM, Strain/Indicator: TA100, Metabolic Activation: HAMSTER, LIVER, S-9, AROCLOR 1254 (10%), Method: PREINCUBATION) “inactive; negative”; (Test System: AMES SALMONELLA TYPHIMURIUM, Strain/Indicator: TA100, Metabolic Activation: HAMSTER, LIVER, S-9, AROCLOR 1254 (30%), Method: PREINCUBATION) “inactive; negative”; under setting [5], “inactive; negative”. In addition, the mutagenic call was “inactive; negative” (Test System: AMES SALMONELLA TYPHIMURIUM, Strain/Indicator: TA100, Metabolic Activation: RAT, LIVER, S-9, AROCLOR 1254 (10%), Method: PREINCUBATION); “inactive; negative” (Test System: AMES SALMONELLA TYPHIMURIUM, Strain/Indicator: TA100, Metabolic Activation: RAT, LIVER, S-9, AROCLOR 1254 (30%), Method: PREINCUBATION); “inactive; negative” (Test System: AMES SALMONELLA TYPHIMURIUM, Strain/Indicator: TA100, Metabolic Activation: RAT, LIVER, S-9, AROCLOR 1254, Method: PREINCUBATION); “inactive; negative” (Test System: AMES SALMONELLA TYPHIMURIUM, Strain/Indicator: TA1535, Metabolic Activation: HAMSTER, LIVER, S-9, AROCLOR 1254 (10%), Method: PREINCUBATION); “inactive; negative” (Test System: AMES SALMONELLA TYPHIMURIUM, Strain/Indicator: TA1535, Metabolic Activation: HAMSTER, LIVER, S-9, AROCLOR 1254 (30%), Method: PREINCUBATION); “inactive; negative” under setting [6]. In addition, the mutagenic call is, setting by setting: (Test System: AMES SALMONELLA TYPHIMURIUM, Strain/Indicator: TA1535, Metabolic Activation: RAT, LIVER, S-9, AROCLOR 1254 (10%), Method: PREINCUBATION) “inactive; negative”; (Test System: AMES SALMONELLA TYPHIMURIUM, Strain/Indicator: TA1535, Metabolic Activation: RAT, LIVER, S-9, AROCLOR 1254 (30%), Method: PREINCUBATION) “inactive; negative”.
As to `CC(=O)Nc1nc2c3cccnc3cc(C)c2n1C`, the mutagenic call reads like this: (Test System: AMES SALMONELLA TYPHIMURIUM, Strain/Indicator: TA98(1,8-DNP6), Metabolic Activation: RAT, LIVER, S-9, Method: STANDARD PLATE) “inactive; negative”; (Test System: AMES SALMONELLA TYPHIMURIUM, Strain/Indicator: TA98(NR), Metabolic Activation: RAT, LIVER, S-9, Method: STANDARD PLATE) “active; positive”; (Test System: AMES SALMONELLA TYPHIMURIUM, Strain/Indicator: TA98, Metabolic Activation: RAT, LIVER, S-9, Method: STANDARD PLATE) “active; positive”; (Test System: AMES SALMONELLA TYPHIMURIUM, Strain/Indicator: TA98, Method: STANDARD PLATE) “active; positive”.
`C1OCOCO1`: the mutagenic call is, setting by setting: (Test System: AMES SALMONELLA TYPHIMURIUM, Strain/Indicator: TA97, Metabolic Activation: HAMSTER, LIVER, S-9, AROCLOR 1254 (10 OR 30%), Method: PREINCUBATION) “inactive; negative”; under setting [1], “inactive; negative”; (Test System: AMES SALMONELLA TYPHIMURIUM, Strain/Indicator: TA97, Metabolic Activation: RAT, LIVER, S-9, AROCLOR 1254 (10 OR 30%), Method: PREINCUBATION) “inactive; negative”; under setting [2], “inactive; negative”; under setting [3], “inactive; negative”; (Test System: AMES SALMONELLA TYPHIMURIUM, Strain/Indicator: TA98, Metabolic Activation: NONE, Method: STANDARD PLATE) “inactive; negative”. Moreover, the mutagenic call was “inactive; negative” under setting [4]; “inactive; negative” (Test System: AMES SALMONELLA TYPHIMURIUM, Strain/Indicator: TA98, Metabolic Activation: RAT, LIVER, S-9, AROCLOR 1254, Method: STANDARD PLATE); “inactive; negative” (Test System: AMES SALMONELLA TYPHIMURIUM, Strain/Indicator: TA100, Metabolic Activation: HAMSTER, LIVER, S-9, AROCLOR 1254 (10 OR 30%), Method: PREINCUBATION); “inactive; negative” under setting [5]; “inactive; negative” (Test System: AMES SALMONELLA TYPHIMURIUM, Strain/Indicator: TA100, Metabolic Activation: NONE, Method: STANDARD PLATE); “inactive; negative” (Test System: AMES SALMONELLA TYPHIMURIUM, Strain/Indicator: TA100, Metabolic Activation: RAT, LIVER, S-9, AROCLOR 1254 (10 OR 30%), Method: PREINCUBATION). Further, the mutagenic call (Test System: AMES SALMONELLA TYPHIMURIUM, Strain/Indicator: TA100, Metabolic Activation: RAT, LIVER, S-9, AROCLOR 1254, Method: STANDARD PLATE) is “inactive; negative”; the mutagenic call (Test System: AMES SALMONELLA TYPHIMURIUM, Strain/Indicator: TA1535, Metabolic Activation: HAMSTER, LIVER, S-9, AROCLOR 1254 (10 OR 30%), Method: PREINCUBATION) is “inactive; negative”; the mutagenic call under setting [6] is “inactive; negative”; the mutagenic call (Test System: AMES SALMONELLA TYPHIMURIUM, Strain/Indicator: TA1535, Metabolic Activation: NONE, Method: STANDARD PLATE) is “inactive; negative”; the mutagenic call (Test System: AMES SALMONELLA TYPHIMURIUM, Strain/Indicator: TA1535, Metabolic Activation: RAT, LIVER, S-9, AROCLOR 1254 (10 OR 30%), Method: PREINCUBATION) was “inactive; negative”; the mutagenic call (Test System: AMES SALMONELLA TYPHIMURIUM, Strain/Indicator: TA1535, Metabolic Activation: RAT, LIVER, S-9, AROCLOR 1254, Method: STANDARD PLATE) is “inactive; negative”. In addition, the mutagenic call reads like this: (Test System: AMES SALMONELLA TYPHIMURIUM, Strain/Indicator: TA1537, Metabolic Activation: NONE, Method: STANDARD PLATE) “inactive; negative”; (Test System: AMES SALMONELLA TYPHIMURIUM, Strain/Indicator: TA1537, Metabolic Activation: RAT, LIVER, S-9, AROCLOR 1254, Method: STANDARD PLATE) “inactive; negative”; (Test System: AMES SALMONELLA TYPHIMURIUM, Strain/Indicator: TA1538, Metabolic Activation: NONE, Method: STANDARD PLATE) “inactive; negative”; (Test System: AMES SALMONELLA TYPHIMURIUM, Strain/Indicator: TA1538, Metabolic Activation: RAT, LIVER, S-9, AROCLOR 1254, Method: STANDARD PLATE) “inactive; negative”.
As to `C[C@]12CC[C@@H]3c4ccc(O)cc4C[C@@H](CCCCCCCCCS(=O)CCCC(F)(F)C(F)(F)F)[C@H]3[C@@H]1CC[C@@H]2O` (some centres not stated), where the note is “Test System: CHINESE HAMSTER V-79, Strain/Indicator: V-79 (HPRT)/6-THIOGUANINE, Metabolic Activation: NONE, Method: SUSPENSION/PLATE”, the mutagenic call was “active; positive”.
Regarding `CC12OOC1(CO)Oc1ccccc12` (configuration not stated), the mutagenic call under setting [5] is “inactive; negative”.
Turning to `O=S(=O)(O)c1ccc2cc(O)ccc2c1`, the mutagenic call reads like this: under setting [3], “inactive; negative”; (Test System: AMES SALMONELLA TYPHIMURIUM, Strain/Indicator: TA98, Metabolic Activation: RAT, LIVER, S-9, PHENOBARBITAL, Method: PREINCUBATION) “inactive; negative”; under setting [5], “inactive; negative”; (Test System: AMES SALMONELLA TYPHIMURIUM, Strain/Indicator: TA100, Metabolic Activation: RAT, LIVER, S-9, PHENOBARBITAL, Method: PREINCUBATION) “inactive; negative”.

For the origin of these results see PubChem BioAssay AID1259407 (Chemical Carcinogenesis Research Information System (CCRIS), 2018).
